Experimental data from publication PMC5007854, “β-Nitrostyrenes as Potential Anti-leishmanial Agents” (Frontiers in Microbiology, 2016).
In brackets after ≈: the same amount, converted by molar mass. Where two headings read alike, the source gives them in different places.

Columns and labels:
[1] = tested on: L. donovani promastigotes; assay: Anti-leishmanial screening at 100 μM, parasite viability by microscopy; format: cell-based, Leishmania donovani; conditions: 100 μM, 72 h, phase contrast microscope
Protocol: (§1) L. donovani parasites (MHOM/IN/83/AG83) were maintained in vivo in BALB/c mice. Promastigotes were routinely cultured at 22°C in medium M199 supplemented with 10% heat inactivated fetal bovine serum (FBS, HiMedia Laboratories, Mumbai, India), penicillin 100 (IU/ml), streptomycin (100 μg/ml). Log phase promastigotes were sub-cultured every 72–96 h, the inoculum being 2 × 10^6 cells/ml (Afrin et al., [2002]).
Nitrostyrine series were screened for their antileishmanial activity against L. donovani promastigotes in vitro. Promastigotes of L. donovani (2 × 10^6 cells/mL) in M199 medium were incubated at 22°C for 72 h with each compound at a concentration of 100 μM. Amphotericin B (AmB) served as reference drug, 0.2% DMSO was used as solvent control. Parasites with media alone were taken as control. Parasite viability was determined microscopically after 72 h (Islamuddin et al., [2014b]).

[2] = tested on: L. donovani promastigotes; assay: Dose-dependent anti-promastigote activity, IC50 and IC90; format: cell-based, Leishmania donovani; conditions: for Anti-leishmanial activity, in words (compounds with IC50 determined): L. donovani promastigotes
Protocol: as §1
AmB was used as a standard antileishmanial drug control. The cell viability was evaluated by microscopically and the mean percentage viability was calculated as follows: Mean cell number of treated parasites / Mean cell number of untreated parasites × 100. The 50 and 90% inhibitory concentration (IC50 and IC90) i.e., the concentration of drugs that decreased the cell growth by 50 and 90% respectively was determined by graphical extrapolation after plotting the graph of % viability vs. concentration of drug (Islamuddin et al., [2014b]).
(§2) In vitro antileishmanial activity was expressed as IC50 by linear regression analysis. Values are mean ± SE of samples in triplicate from at least three independent experiments. Statistical analysis was performed using ANOVA followed by Dunnett's test. ^*P < 0.05, ^**P < 0.01 and ^***P < 0.001 compared with the untreated control group were considered significant.

[3] = tested on: Escherichia coli ATCC 25922; assay: Broth microdilution antibacterial susceptibility (MIC/MBC); format: cell-based; conditions: for MIC / MBC: Escherichia coli; for MIC: ATCC25922, 24 h, read-out: MIC, Ec ATCC 25922; for MBC: ATCC25922, ≥99.9% reduction of original inoculum, read-out: MBC, Ec ATCC 25922
How it was run: (§3)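 CLSI broth microdilution: Ca/Mg-supplemented Mueller-Hinton for bacteria (~5 × 10^5 CFU/mL, 24 h), MOPS-buffered RPMI 1640 pH 7.0 for fungi (Candida ~2.5 × 10^4, Aspergillus 0.4-5 × 10^4 CFU/mL, 48 h), 35°C, 1% DMSO, 64 to 0.12 μg/mL. MIC read visually; MBC/MFC by plating clear wells.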

[4] = tested on: Pseudomonas aeruginosa ATCC 27853; assay: as above; format: cell-based; conditions: for MIC / MBC: Pseudomonas aeruginosa; for MIC: ATCC27853, 24 h, read-out: MIC, Pa ATCC 27853; for MBC: ATCC27853, ≥99.9% reduction of original inoculum, read-out: MBC, Pa ATCC 27853
How it was run: as §3

[5] = tested on: Staphylococcus aureus ATCC 29213; assay: as above; format: cell-based; conditions: for MIC / MBC: Staphylococcus aureus; for MIC: ATCC29213, 24 h, read-out: MIC, Sa ATCC 29213; for MBC: ATCC29213, ≥99.9% reduction of original inoculum, read-out: MBC, Sa ATCC 29213
How it was run: as §3

[6] = tested on: Staphylococcus epidermidis ATCC 14990; assay: as above; format: cell-based; conditions: for MIC / MBC: Staphylococcus epidermidis; for MIC: ATCC14990, 24 h, read-out: MIC, Se ATCC 14990; for MBC: ATCC14990, ≥99.9% reduction of original inoculum, read-out: MBC, Se ATCC 14990
How it was run: as §3

[7] = tested on: Aspergillus fumigatus ATCC 16424; assay: Broth microdilution antifungal susceptibility (MIC/MFC); format: cell-based; conditions: for MIC / MFC: Aspergillus fumigatus; for MIC: ATCC16424, 48 h, read-out: MIC, Af ATCC 16424; for MFC: ATCC16424, ≥99.9% reduction of original inoculum, read-out: MFC, Af ATCC 16424
How it was run: as §3

[8] = tested on: Candida albicans ATCC 90028; assay: as above; format: cell-based; conditions: for MIC / MFC: Candida albicans; for MIC: ATCC90028, 48 h, read-out: MIC, Ca ATCC 90028; for MFC: ATCC90028, ≥99.9% reduction of original inoculum, read-out: MFC, Ca ATCC 90028
How it was run: as §3

[9] = tested on: Candida glabrata ATCC 90030; assay: as above; format: cell-based; conditions: Nakaseomyces glabratus; for MFC: ATCC90030, ≥99.9% reduction of original inoculum, read-out: MFC, Cg ATCC 90030; for MIC: ATCC90030, 48 h, broth microdilution, 35°C, 48 h, read-out: MIC, Cg ATCC 90030
How it was run: as §3

[10] = tested on: Aspergillus niger ATCC 16404; assay: as above; format: cell-based; conditions: for MIC / MFC: Aspergillus niger; for MIC: ATCC16404, 48 h, read-out: MIC, An ATCC 16404; for MFC: ATCC16404, ≥99.9% reduction of original inoculum, read-out: MFC, An ATCC 16404
How it was run: as §3

[11] = tested on: L. donovani promastigotes; assay: Leishmanicidal assay (growth reversion after wash-out); format: cell-based, Leishmania donovani; conditions: 1 μM, 72 h treatment, then 72 h in fresh media
Protocol: To confirm the leishmanicidal effect of compounds 9, 12, 14, and 18, treated and untreated parasites (1 μM) after 72 h of incubation, were washed two times with fresh incomplete medium and finally resuspended in complete media, transferred back to 22°C and allowed to grow for 72 h. The viability of the parasites was determined microscopically (Afrin et al., [2001]).

[12] = tested on: L. donovani intracellular amastigotes; assay: Anti-amastigote activity in ex vivo macrophage model; format: cell-based, Leishmania donovani; conditions: Leishmania donovani, Peritoneal macrophage, in Mus musculus; intracellular amastigotes in BALB/c peritoneal macrophages, 48 h; read-out: L. donovani amastigotes IC50 ± SEM
Description: BALB/c mice was used for the isolation of peritoneal macrophages in the ex vivo anti-amastigote study after prior approval from the Jamia Hamdard Animal Ethics Committee (JHAEC). JHAEC is registered under the Committee for the purpose of supervision and control of experiments on animals (CPCSEA). Mice were individually housed in the Central Animal House of Jamia Hamdard as per internationally accepted norms. The mice were kept in standard size polycarbonate cages under controlled conditions of temperature (23 ± 1°C), humidity (55 ± 10%), 12:12 h of light and dark cycle and fed with standard pellet diet and filtered water (ad libitum).
Macrophages from the peritonial cavity of BALB/c mice (1 × 10^6 cellsml^−1) were allowed to adhere to round glass coverslips in a 24 well tissue culture plate and incubated for 12 h at 37°C in a CO2 incubator. After removal of the non-adherent macrophages, the cells were infected with stationary phase promastigotes using a cell to parasite ratio of 1:10 and incubated at 37°C for 24 h. The non-phagocytosed parasites were removed by washing, and the infected macrophages incubated with the test compounds 9, 12, 14, and 18 (0–25 μM) for an additional 48 h. The coverslips were fixed in methanol and giemsa-stained for microscopic evaluation (100X) of amastigote infectivity. Number of amastigotes per 100 macrophages were enumerated and the concentration that decreased amastigotes by 50% (IC50) was determined (Wong et al., [2012]; Islamuddin et al., [2014a]).
as §2

[13] = broth microdilution, 35°C, 24 h
[14] = broth microdilution, 35°C, 48 h

| SMILES | Parasite viability after treatment [1] | Anti-leishmanial activity, in words (compounds with IC50 determined) [2] | MIC [3, 13] | MBC [3] | MIC [4, 13] | MBC [4] | MIC [5, 13] | MBC [5] | MIC [6, 13] | MBC [6] | melting point | MIC [7, 14] | MFC [7] | MIC [8, 14] | MFC [8] | MFC [9] | MIC [10, 14] | MFC [10] | MIC [9] | further results |
| --- | --- | --- | --- | --- | --- | --- | --- | --- | --- | --- | --- | --- | --- | --- | --- | --- | --- | --- | --- | --- |
| C/C(=C\c1ccc(O)cc1)[N+](=O)[O-] [Compound 17, 4-((E)-2-nitroprop-1-enyl) phenol] | All the parasites were found to be dead | moderately active | 16 to 32 µg/mL (≈ 89.3 to 179 µM) | 16 µg/mL (≈ 89.3 µM) | 16 to 32 µg/mL (≈ 89.3 to 179 µM) | 32 µg/mL (≈ 179 µM) | 2 to 32 µg/mL (≈ 11.2 to 179 µM) | 4 µg/mL (≈ 22.3 µM) | 2 to 16 µg/mL (≈ 11.2 to 89.3 µM) | 2 µg/mL (≈ 11.2 µM) | 122 to 124 °C | 4 to 8 µg/mL (≈ 22.3 to 44.6 µM) | 8 µg/mL (≈ 44.6 µM) | 4 to 32 µg/mL (≈ 22.3 to 179 µM) | 8 µg/mL (≈ 44.6 µM) | 8 µg/mL (≈ 44.6 µM) | 2 to 4 µg/mL (≈ 11.2 to 22.3 µM) | 4 µg/mL (≈ 22.3 µM) |  | IC50 ([2]; Leishmania donovani, 72 h, 22°C, values given in μM, read-out: IC50 against promastigotes): 39.4 ± 1.36 µM; MIC, Ec ATCC 25922 [3, 13]: 16 µg/mL (≈ 89.3 µM); MIC, Pa ATCC 27853 [4, 13]: 16 µg/mL (≈ 89.3 µM); MIC, Sa ATCC 29213 [5, 13]: 4 µg/mL (≈ 22.3 µM); MIC, Se ATCC 14990 [6, 13]: 2 µg/mL (≈ 11.2 µM); MIC, Af ATCC 16424 [7, 14]: 8 µg/mL (≈ 44.6 µM); MIC, Ca ATCC 90028 [8, 14]: 8 µg/mL (≈ 44.6 µM); MIC, An ATCC 16404 [10, 14]: 4 µg/mL (≈ 22.3 µM) |
| C[C@@H]1[C@H](O)[C@@H](C)/C=C/C=C/C=C/C=C/C=C/C=C/C=C/[C@H](O[C@@H]2O[C@H](C)[C@@H](O)[C@H](N)[C@@H]2O)C[C@@H]2O[C@](O)(C[C@@H](O)C[C@@H](O)[C@H](O)CC[C@@H](O)C[C@@H](O)CC(=O)O[C@H]1C)C[C@H](O)[C@H]2C(=O)O [AmB, Amphotericin B, reference compound] |  |  |  |  |  |  |  |  |  |  |  | 0.5 µg/mL (≈ 0.541 µM) | 1 µg/mL (≈ 1.08 µM) | 0.5 µg/mL (≈ 0.541 µM) | 0.5 µg/mL (≈ 0.541 µM) | 0.5 µg/mL (≈ 0.541 µM) | 1 µg/mL (≈ 1.08 µM) | 1 µg/mL (≈ 1.08 µM) | 0.5 µg/mL (≈ 0.541 µM) | Leishmanicidal effect (reversion after wash and 72 h in fresh media) [11]: as also observed in positive drug control; IC50 ([2]; Leishmania donovani, 72 h, 22°C, mean from three determinations, read-out: L. donovani promastigotes IC50 ± SEM): 0.0196 ± 0.00171 µM; IC90 ([2]; Leishmania donovani, 72 h, 22°C, mean from three determinations, read-out: L. donovani promastigotes IC90 ± SEM): 82.6 ± 1.36 nM; IC50 [12]: 27.8 ± 3.26 nM |
| COc1ccc(/C=C(\C)[N+](=O)[O-])cc1OC [Compound 23, 1,2-dimethoxy-4-((E)-2-nitroprop-1-enyl) benzene] | All the parasites were found to be dead | moderate activity | > 64 µg/mL | > 64 µg/mL | > 64 µg/mL | > 64 µg/mL | 8 µg/mL (≈ 35.8 µM) | 16 µg/mL (≈ 71.7 µM) | 8 µg/mL (≈ 35.8 µM) | 8 µg/mL (≈ 35.8 µM) | 70 to 72 °C | 16 µg/mL (≈ 71.7 µM) | 16 µg/mL (≈ 71.7 µM) | 32 µg/mL (≈ 143 µM) | 32 µg/mL (≈ 143 µM) | 4 µg/mL (≈ 17.9 µM) | 8 µg/mL (≈ 35.8 µM) | 8 µg/mL (≈ 35.8 µM) | 4 µg/mL (≈ 17.9 µM) |  |
